Results reported in PubChem BioAssay AID248 (DTP/NCI, 2004).
Several values for one entry are separate records, joined by “and”; a condition that tells them apart may be missing. Equal values may be shown once. Toxic doses and inconclusive results are not listed. Cut-off read from the data, not from the text of the source: active = T/C of 150% or more; inactive = T/C below 125%.

System: L1210 leukemia ip in BDF1 mice, survival T/C
Assay: NCI In Vivo Anticancer Drug Screen. Data for tumor model L1210 Leukemia (intraperitoneal) in B6D2F1 (BDF1) mice
Conditions: endpoint: mean survival time, higher = longer survival
In short: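 Tumor was transplanted into mice, which were then dosed with test compound or vehicle alone. Survival was recorded for each group, and the treated figure was expressed relative to the control figure.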

[1] = dose: 100.0 mg/kg/injection, schedule: Q01DX009 (ip), vehicle: saline
[2] = dose: 200.0 mg/kg/injection, schedule: Q01DX009 (ip), vehicle: saline
[3] = dose: 100.0 mg/kg/injection, schedule: Q04DX002 (ip), vehicle: saline with Tween-80
[4] = dose: 200.0 mg/kg/injection, schedule: Q04DX002 (ip), vehicle: saline with Tween-80
[5] = dose: 400.0 mg/kg/injection, schedule: Q04DX002 (ip), vehicle: saline with Tween-80
[6] = dose: 50.0 mg/kg/injection, schedule: Q01DX009 (ip), vehicle: saline
[7] = dose: 100.0 mg/kg/injection, schedule: Q01DX001 (ip), vehicle: saline
[8] = dose: 100.0 mg/kg/injection, schedule: Q01DX009 (ip), vehicle: Klucel (hydroxypropylcellulose) (HPC)
[9] = dose: 100.0 mg/kg/injection, schedule: Q04DX003 (ip), vehicle: Klucel (hydroxypropylcellulose) (HPC)
[10] = dose: 200.0 mg/kg/injection, schedule: Q01DX001 (ip), vehicle: saline
[11] = dose: 200.0 mg/kg/injection, schedule: Q01DX009 (ip), vehicle: Klucel (hydroxypropylcellulose) (HPC)
[12] = dose: 200.0 mg/kg/injection, schedule: Q04DX003 (ip), vehicle: Klucel (hydroxypropylcellulose) (HPC)
[13] = dose: 400.0 mg/kg/injection, schedule: Q01DX001 (ip), vehicle: saline
[14] = dose: 400.0 mg/kg/injection, schedule: Q01DX009 (ip), vehicle: Klucel (hydroxypropylcellulose) (HPC)
[15] = dose: 400.0 mg/kg/injection, schedule: Q04DX003 (ip), vehicle: Klucel (hydroxypropylcellulose) (HPC)
[16] = dose: 100.0 mg/kg/injection, schedule: Q01DX001 (ip), vehicle: carboxymethylcellulose (CMC)
[17] = dose: 200.0 mg/kg/injection, schedule: Q01DX001 (ip), vehicle: carboxymethylcellulose (CMC)
[18] = dose: 400.0 mg/kg/injection, schedule: Q01DX001 (ip), vehicle: carboxymethylcellulose (CMC)
[19] = dose: 100.0 mg/kg/injection, schedule: Q04DX002 (ip), vehicle: Klucel (hydroxypropylcellulose) (HPC)
[20] = dose: 200.0 mg/kg/injection, schedule: Q04DX002 (ip), vehicle: Klucel (hydroxypropylcellulose) (HPC)
[21] = dose: 400.0 mg/kg/injection, schedule: Q04DX002 (ip), vehicle: Klucel (hydroxypropylcellulose) (HPC)

Measured: T/C

NC(=O)NOC(=O)c1ccccc1
inactive: dose: 50.0 mg/kg/injection, schedule: Q01DX Z (ip), vehicle: other 103 % of control | dose: 100.0 mg/kg/injection, schedule: Q01DX Z (ip), vehicle: other 103 % of control | dose: 450.0 mg/kg/injection, schedule: Q01DX Z (ip), vehicle: other 111 % of control | dose: 600.0 mg/kg/injection, schedule: Q01DX Z (ip), vehicle: other 112 % of control

CC1=CC(=N\S(=O)(=O)c2ccccc2)/C(=N/S(=O)(=O)c2ccccc2)C=C1
inactive: dose: 100.0 mg/kg/injection, schedule: Q04DX003 (ip), vehicle: saline with Tween-80 94 % of control | dose: 200.0 mg/kg/injection, schedule: Q04DX003 (ip), vehicle: saline with Tween-80 94 % of control | dose: 400.0 mg/kg/injection, schedule: Q04DX003 (ip), vehicle: saline with Tween-80 92 % of control

Cc1ccc(C(=O)C(C)(C)C)c(C)c1
inactive: [1] 97 % of control | [2] 97 % of control | dose: 400.0 mg/kg/injection, schedule: Q01DX009 (ip), vehicle: saline 93 % of control

CC1(C(Cl)Cl)C(=O)C=Cc2ccccc21 (stereo not given)
inactive: [3] 95 % of control | [4] 98 % of control | [5] 95 % of control

CN(C)c1ccc(/C=C\C(=O)c2ccccc2)cc1
inactive: dose: 50.0 mg/kg/injection, schedule: Q01DX001 (ip), vehicle: saline 96 % of control | [6] 94 % of control | [7] 102 % of control | [8] 95 % of control | [1] 102 % of control | [9] 94 % of control | [10] 111 % of control | [11] 95 % of control | [2] 97 % of control | [12] 93 % of control | [13] 94 % of control | [14] 97 % of control | [15] 94 % of control

Nc1nc2nnc(-c3ccccc3)c(-c3ccccc3)n2n1
inactive: dose: 100.0 mg/kg/injection, schedule: Q01DX001 (ip), vehicle: Klucel (hydroxypropylcellulose) (HPC) 93 % of control | [9] 96 % of control | dose: 200.0 mg/kg/injection, schedule: Q01DX001 (ip), vehicle: Klucel (hydroxypropylcellulose) (HPC) 93 % of control | [12] 101 % of control | dose: 400.0 mg/kg/injection, schedule: Q01DX001 (ip), vehicle: Klucel (hydroxypropylcellulose) (HPC) 92 % of control | [15] 91 % of control

NNC(=O)NO
inactive: dose: 33.0 mg/kg/injection, schedule: Q01DX009 (ip), vehicle: saline 114 % of control | dose: 75.0 mg/kg/injection, schedule: Q01DX001 (ip), vehicle: saline 101 % of control | dose: 150.0 mg/kg/injection, schedule: Q01DX001 (ip), vehicle: saline 103 % of control

CN1CCC(O)(c2ccccc2)C(/C(=N/O)c2ccccc2)C1 (stereo not given)
inactive: dose: 100.0 mg/kg/injection, schedule: Q04DX003 (ip), vehicle: saline 97 % of control | dose: 200.0 mg/kg/injection, schedule: Q04DX003 (ip), vehicle: saline 90 % of control

CN1CCC(OC(=O)C(F)(c2ccccc2)c2ccccc2)CC1
inactive: dose: 20.0 mg/kg/injection, schedule: Q01DX001 (ip), vehicle: saline 98 % of control

CCCCCCCCCCCCOS(=O)(=O)O
inactive: [7] 98 % of control | [10] 95 % of control | [13] 98 % of control

C/C(=N/O)c1ccc(O)cc1
inactive: dose: 100.0 mg/kg/injection, schedule: Q01DX009 (ip), vehicle: saline with Tween-80 103 % of control | dose: 200.0 mg/kg/injection, schedule: Q01DX009 (ip), vehicle: saline with Tween-80 96 % of control | dose: 400.0 mg/kg/injection, schedule: Q01DX009 (ip), vehicle: saline with Tween-80 97 % of control

O=c1cc(I)[nH]c(=O)[nH]1
inactive: dose: 73.0 mg/kg/injection, schedule: Q01DX Z (ip), vehicle: methylcellulose (MC) 100 % of control | dose: 111.0 mg/kg/injection, schedule: Q01DX Z (ip), vehicle: methylcellulose (MC) 96 % of control | dose: 165.0 mg/kg/injection, schedule: Q01DX Z (ip), vehicle: methylcellulose (MC) 102 % of control | dose: 248.0 mg/kg/injection, schedule: Q01DX Z (ip), vehicle: methylcellulose (MC) 110 % of control

Nc1nc(Cl)nc2c1ncn2C1CC(O)C(CO)O1 (stereo not given)
inactive: dose: 44.4 mg/kg/injection, schedule: Q01DX001 (ip), vehicle: carboxymethylcellulose (CMC) 118 % of control | dose: 50.0 mg/kg/injection, schedule: Q01DX001 (ip), vehicle: carboxymethylcellulose (CMC) 109 % of control | dose: 66.6 mg/kg/injection, schedule: Q01DX001 (ip), vehicle: carboxymethylcellulose (CMC) 112 % of control | [16] 109 % of control and 118 % of control | [17] 120 % of control and 124 % of control | [18] 102 % of control

O=c1[nH]c2ccccc2n1C1CCN(CCCC(c2ccc(F)cc2)c2ccc(F)cc2)CC1
inactive: dose: 12.5 mg/kg/injection, schedule: Q01DX009 (ip), vehicle: Klucel (hydroxypropylcellulose) (HPC) 100 % of control | dose: 25.0 mg/kg/injection, schedule: Q01DX009 (ip), vehicle: Klucel (hydroxypropylcellulose) (HPC) 120 % of control | dose: 25.0 mg/kg/injection, schedule: Q04DX003 (ip), vehicle: Klucel (hydroxypropylcellulose) (HPC) 88 % of control | dose: 50.0 mg/kg/injection, schedule: Q04DX003 (ip), vehicle: Klucel (hydroxypropylcellulose) (HPC) 104 % of control | [8] 88 % of control | [9] 104 % of control | [12] 109 % of control | [15] 95 % of control

Clc1ccc(Oc2nc3c(Cl)cccc3s2)cc1Cl
inactive: [19] 101 % of control | [20] 101 % of control | [21] 97 % of control

CC(C)CCCC(C)C1CCC2C3CC=C4CC([S+](C)C)CCC4(C)C3CCC12C (stereo not given)
inactive: dose: 25.0 mg/kg/injection, schedule: Q01DX009 (ip), vehicle: saline 96 % of control | [6] 96 % of control | dose: 100.0 mg/kg/injection, schedule: Q04DX003 (ip), vehicle: alcohol 98 % of control

CCOC(=O)C(Cc1c[nH]c2ccccc12)C(=O)OCC
inactive: [9] 96 % of control | [12] 94 % of control | [15] 98 % of control

CCCC(C)OS(=O)(=O)c1ccc(N)cc1 (stereo not given)
inactive: [8] 113 % of control | [11] 95 % of control

COC(=O)C1=C(\O)CCCC/C=C\1C(=O)OC
inactive: [19] 87 % of control | [20] 97 % of control | [21] 107 % of control

CC1COCC(C)N1CCC(=O)Nc1ccc(S(=O)(=O)c2ccc(NC(=O)CCN3C(C)COCC3C)cc2)cc1 (stereo not given)
inactive: [16] 107 % of control | [17] 104 % of control | [18] 101 % of control

CCN(CC)S(=O)(=O)CC
inactive: [3] 99 % of control | [4] 96 % of control | [5] 92 % of control

CCOc1ccc(NP(=O)(Oc2c(F)c(F)c(F)c(F)c2F)N(CCCl)CCCl)cc1 (stereo not given)
inactive: dose: 62.5 mg/kg/injection, schedule: Q01DX001 (ip), vehicle: other 95 % of control | dose: 125.0 mg/kg/injection, schedule: Q01DX001 (ip), vehicle: other 90 % of control | dose: 250.0 mg/kg/injection, schedule: Q01DX001 (ip), vehicle: other 89 % of control | dose: 500.0 mg/kg/injection, schedule: Q01DX001 (ip), vehicle: other 87 % of control

CC1CC[N-]CC1.CC1CC[N-]CC1.CS(C)=O.[Cl][Rh]([Cl])[Cl]
inactive: dose: 3.0 mg/kg/injection, schedule: Q01DX009 (ip), vehicle: saline with Tween-80 98 % of control | dose: 6.0 mg/kg/injection, schedule: Q01DX009 (ip), vehicle: saline with Tween-80 106 % of control | dose: 12.0 mg/kg/injection, schedule: Q01DX009 (ip), vehicle: saline with Tween-80 109 % of control

C=COC1CCCCC1
inactive: [8] 101 % of control | [9] 97 % of control | [11] 100 % of control | [12] 90 % of control | [14] 95 % of control | [15] 88 % of control
